Assay results: article PMC8528301 (PLoS ONE, 2021)
Several values for one entry are separate records, joined by “and”; a condition that tells them apart may be missing. Equal entries are not always repeated. Where two headings read alike, the source gives them in different places.

Assay: Dasatinib single oral gavage plasma pharmacokinetics (NLME modeling)
Assay type: in vivo, mouse
Parameters: DV (dasatinib plasma concentration): unit: ng/mL
Details: for CL/F: both sexes, po, read-out: Cl_pop (apparent oral clearance) (converted); for CL/F / concentration at 0.5 h / concentration at 1 h / concentration at 2 h / concentration at 8 h / concentration at 16 h / concentration at […] / concentration at 4 h / concentration at 24 h: C57BL/6, mouse, plasma, 10 mg/kg; for concentration at 0.5 h / concentration at 1 h / concentration at 2 h / concentration at 8 h / concentration at 16 h / concentration at […] / concentration at 4 h / concentration at 24 h: oral, read-out: DV (dasatinib plasma concentration)
Experimental: Dasatinib was dissolved in 80 mMol/L sodium citrate buffer pH 3.1 for a total dasatinib concentration of 1 mg/mL and a 10 mL/kg gavage volume. Mice were grouped by VD3 status and sex and studied at 8 and 10 weeks of age. […] Saphenous and submandibular bleeds of mice using a single-use Sarstedt Minivette POCT 50 μL K3 EDTA capillary device are humane methods for obtaining small volumes of blood over multiple time points, preferrable to retroorbital bleeds, and were approved for this study that required blood sampling at multiple time points (three) after dasatinib administration. Each mouse was sampled three times on two separate dasatinib dosing occasions. Blood was collected into the Minivette capillary device, dispensed into a microtube and vortexed to mix the anticoagulant. The tubes were then immediately centrifuged to plasma and stored on dry ice for the remainder of the study. At the end of the in vivo procedures, plasma samples were transferred from dry ice and placed at -80°C until analysis.
Total plasma dasatinib concentrations were assessed using a sensitive and specific liquid chromatography, tandem mass spectrometry (LC-MS/MS) assay. Dasatinib stock solutions were prepared in acetonitrile and used to spike matrix calibrators and quality controls. Protein precipitation was performed using a 1:4 ratio of plasma to 15 ng/mL erlotinib HCl (St. Jude Compound Management, S00004053, Inventory ID: SJCH0042996, Purity > 95%) in methanol as an internal standard. A 3μL aliquot of the extracted supernatant was injected onto a Shimadzu LC-20ADXR high performance liquid chromatography system via a LEAP CTC PAL autosampler. The LC separation was performed using a Phenomenex Kinetex 2.6 um EVO C18 (100A, 50 x 2.1 mm) maintained at 50°C with gradient elution at a flow rate of 0.5 mL/min. The binary mobile phase gradient began with a linear increase to 100% B in 4.0 minutes. The column was then rinsed for 2.0 minutes at 100% B and then equilibrated at the initial conditions for two minutes for a total run time of eight minutes.
Analyte and IS were detected with tandem mass spectrometry using a SCIEX API 5500 Q-TRAP in the positive ESI mode with monitoring of the following mass transitions: Dasatinib 488.20 -> 401.00, erlotinib HCl 394.20 -> 250.10.
The experimental bioanalytical runs were all found to be acceptable for the purpose of a singlicate non-GLP, preclinical PK assessment. A linear model (1/X^2 weighting) fit the calibrators across the 1.00 to 500 ng/mL range, with a correlation coefficient (R) of […]. The lower limit of quantification (LLOQ), defined as a peak area signal-to-noise ratio of 5 or greater verses a matric blank with IS, was 1.00 ng/mL.
§ To evaluate the plasma pharmacokinetics (PK) of dasatinib af t er two separate single oral gavage doses of solution, separated by a washout period, in normal C57BL/6 mice […]
vs 10wk) on the plasma PK of oral dasatinib us ing a nonlinear mixed effects (NLME) PK modeling […]
2. 1 In Vivo Pharmacokinetic (PK) Study
The total plasma PK of dasatinib in C57BL/6 mice (The Jackson Laboratory) was assessed after single oral gavages of 10 mg/kg of dasatinib free base equivalents. Dasatinib (St. Jude Compound […]
sodium citrate buffer pH 3.1 for a final dasatinib concentration of 1 mg/mL for a 10 mL/kg gavage volume.
Mice were grouped by Vitamin D dietary sufficiency status and sex, and studied at 8 and 10 weeks of age. Survival saphenous and facial vein bleeding of mice was conducted using IACUC-approved […]
was sampled 3 times on the 2 separate occasions of dasatinib dosing. […] The tubes were then immediately centrifuged to plasma, and stored on dry ice for […]

With `Cc1nc(Nc2ncc(C(=O)Nc3c(C)cccc3Cl)s2)cc(N2CCN(CCO)CC2)n1` [dasatinib] the “DV (dasatinib plasma concentration)” value (GROUP:VD3 Suf, SEX:M, OCC 2, time 0.25) was 101.99 and 116.5, the “DV (dasatinib plasma concentration)” value (GROUP:VD3 Suf, SEX:M, OCC 2, time 0.5) was 207.19 and 212.25 and the “DV (dasatinib plasma concentration)” value (GROUP:VD3 Suf, SEX:M, OCC 2, time 2) was 297.27 and 320.75. The “DV (dasatinib plasma concentration)” value (GROUP:VD3 Suf, SEX:M, OCC 2, time 8) was 10.361 and 16.431, the “DV (dasatinib plasma concentration)” value (GROUP:VD3 Suf, SEX:M, OCC 2, time 24) was 3.3895 and 3.3706 and the CL/F (Base Model, 10 mg/kg oral gavage) was 112 mL/min/kg. The CL/F (Final Model) was 119 mL/min/kg, the concentration at 0.5 h (female, GROUP:VD3 Def, SEX:F, OCC 1, time 0.5) was 149 ng/mL and the concentration at 1 h (female, GROUP:VD3 Def, SEX:F, OCC 1, time 1) was 278 ng/mL. For the same molecule, the concentration at 2 h (female, GROUP:VD3 Def, SEX:F, OCC 1, time 2) was 435 ng/mL, the concentration at 8 h (female, GROUP:VD3 Def, SEX:F, OCC 1, time 8) was 25.2 ng/mL and the concentration at 16 h (female, GROUP:VD3 Def, SEX:F, OCC 1, time 16) was 4.02 ng/mL. For the same molecule, the concentration at […] (female, GROUP:VD3 Def, SEX:F, OCC 2, time 0.125) was 49 ng/mL, the concentration at […] (female, GROUP:VD3 Def, SEX:F, OCC 2, time 0.25) was 146 ng/mL and the concentration at 0.5 h (female, GROUP:VD3 Def, SEX:F, OCC 2, time 0.5) was 188 ng/mL. The concentration at 16 h (female, GROUP:VD3 Def, SEX:F, OCC 2, time 16) was 4.35 ng/mL, the concentration at […] (female, GROUP:VD3 Suf, SEX:F, OCC 1, time 0.25) was 167 ng/mL and the concentration at 0.5 h (female, GROUP:VD3 Suf, SEX:F, OCC 1, time 0.5) was 231 ng/mL. It also gave a concentration at 2 h (female, GROUP:VD3 Suf, SEX:F, OCC 1, time 2) of 405 ng/mL, a concentration at 4 h (female, GROUP:VD3 Suf, SEX:F, OCC 1, time 4) of 54.1 ng/mL and a concentration at 8 h (female, GROUP:VD3 Suf, SEX:F, OCC 1, time 8) of 22 ng/mL. For the same molecule, the concentration at 16 h (female, GROUP:VD3 Suf, SEX:F, OCC 1, time 16) was 2.06 ng/mL, the concentration at 0.5 h (female, GROUP:VD3 Suf, SEX:F, OCC 2, time 0.5) was 137 ng/mL and the concentration at 1 h (female, GROUP:VD3 Suf, SEX:F, OCC 2, time 1) was over 500 ng/mL. The concentration at 2 h (female, GROUP:VD3 Suf, SEX:F, OCC 2, time 2) was 441 ng/mL, the concentration at 4 h (female, GROUP:VD3 Suf, SEX:F, OCC 2, time 4) was 64 ng/mL and the concentration at 16 h (female, GROUP:VD3 Suf, SEX:F, OCC 2, time 16) was 8.15 ng/mL. It also gave a concentration at […] (male, GROUP:VD3 Def, SEX:M, OCC 1, time 0.25) of 145 ng/mL, a concentration at 0.5 h (male, GROUP:VD3 Def, SEX:M, OCC 1, time 0.5) of 194 ng/mL and a concentration at 2 h (male, GROUP:VD3 Def, SEX:M, OCC 1, time 2) of over 500 ng/mL. The concentration at 4 h (male, GROUP:VD3 Def, SEX:M, OCC 1, time 4) was 87.8 ng/mL, the concentration at 8 h (male, GROUP:VD3 Def, SEX:M, OCC 1, time 8) was 16.2 ng/mL and the concentration at 24 h (male, GROUP:VD3 Def, SEX:M, OCC 1, time 24) was 6.39 ng/mL. The concentration at 0.5 h (male, GROUP:VD3 Def, SEX:M, OCC 2, time 0.5) was 178 ng/mL, the concentration at 1 h (male, GROUP:VD3 Def, SEX:M, OCC 2, time 1) was over 500 ng/mL and the concentration at 2 h (male, GROUP:VD3 Def, SEX:M, OCC 2, time 2) was 287 ng/mL. For the same molecule, the concentration at 4 h (male, GROUP:VD3 Def, SEX:M, OCC 2, time 4) was 83.2 ng/mL, the concentration at 8 h (male, GROUP:VD3 Def, SEX:M, OCC 2, time 8) was 15.5 ng/mL and the concentration at 16 h (male, GROUP:VD3 Def, SEX:M, OCC 2, time 16) was 11.1 ng/mL. For the same molecule, the concentration at […] (male, GROUP:VD3 Suf, SEX:M, OCC 1, time 0.125) was 49.4 ng/mL, the concentration at […] (male, GROUP:VD3 Suf, SEX:M, OCC 1, time 0.25) was 110 ng/mL and the concentration at 2 h (male, GROUP:VD3 Suf, SEX:M, OCC 1, time 2) was 350 ng/mL. The concentration at 4 h (male, GROUP:VD3 Suf, SEX:M, OCC 1, time 4) was 147 ng/mL, the concentration at […] (male, GROUP:VD3 Suf, SEX:M, OCC 2, time 0.25) was 107 ng/mL and the concentration at 0.5 h (male, GROUP:VD3 Suf, SEX:M, OCC 2, time 0.5) was 316 ng/mL. For the same molecule, the concentration at 1 h (male, GROUP:VD3 Suf, SEX:M, OCC 2, time 1) was over 500 ng/mL, the concentration at 2 h (male, GROUP:VD3 Suf, SEX:M, OCC 2, time 2) was 366 ng/mL and the concentration at 8 h (male, GROUP:VD3 Suf, SEX:M, OCC 2, time 8) was 20.4 ng/mL. It also gave a concentration at 24 h (male, GROUP:VD3 Suf, SEX:M, OCC 2, time 24) of 1.88 ng/mL.
